From ChEMBL document CHEMBL5226304, “Fused-azepinones: Emerging scaffolds of medicinal importance” (Eur J Med Chem, 2021)
Converted amounts (≈) assume the structure as drawn.

Tests used:
[1] = target: Cyclin-dependent kinase 5/CDK5 activator 1 (Homo sapiens, UniProt Q00535); assay: Inhibition of CDK5/p25 (unknown origin); assay type: protein-complex assay
[2] = Selectivity index, ratio of IC50 for CDK1/Cycline B (unknown origin) to IC50 for GSK3beta (unknown origin)
[3] = target: Cyclin-dependent kinase 1/cyclin B (Homo sapiens, UniProt P06493); assay: Inhibition of CDK1/Cyclin B (unknown origin) in presence of gamma32P-ATP by scintillation counter analysis; assay type: protein-complex assay
[4] = target: Mitogen-activated protein kinase kinase kinase 11 (Homo sapiens) (UniProt Q16584); assay: Inhibition of MLK3 (unknown origin) at 10 uM relative to control
[5] = target: Aurora kinase B (Homo sapiens) (UniProt Q96GD4); assay: Inhibition of Aurora B (unknown origin) at 10 uM relative to control
[6] = target: Serine/threonine-protein kinase PLK1 (Homo sapiens) (UniProt P53350); assay: Inhibition of PLK1 (unknown origin) at 10 uM relative to control
Homo sapiens [7] = species on record: Homo sapiens; assay: Inhibition of MPK (unknown origin) at 10 uM relative to control
[8] = target: Serine/threonine-protein kinase pim-1 (Homo sapiens) (UniProt P11309); assay: Inhibition of PIM1 (unknown origin) at 10 uM relative to control
[9] = target: MAP/microtubule affinity-regulating kinase 3 (Homo sapiens) (UniProt P27448); assay: Inhibition of MARK3 (unknown origin) at 10 uM relative to control
Integrin alpha-V/beta-3 = Integrin alpha-V/beta-3 (Homo sapiens, UniProt P05106+P06756); assay: Antagonist activity against human integrin alphaVbeta3 expressed in CHO-K1 cells measured after 4 hrs by Cell adhesion assay; assay type: cell-based
Homo sapiens [10] = species on record: Homo sapiens; assay: Selectivity ratio of IC50 for Chk1 (unknown origin) to IC50 for (unknown origin)
Casein kinase I = assay: Inhibition of CK1 (unknown origin); assay type: protein assay, Homo sapiens
Protein kinase C (PKC) = assay: Inhibition of Protein kinase C (unknown origin); assay type: protein assay, Homo sapiens
MCF7 = assay: Cytotoxicity against human MCF7 cells by MTT assay; assay type: functional, cell-based
MDA-MB-231 = assay: Cytotoxicity against human MDA-MB-231 cells by MTT assay; assay type: functional, cell-based
L5178Y = assay: Cytotoxicity against mouse L5178Y cells by MTT assay; assay type: functional, cell-based
KB 3-1 = assay: Cytotoxicity against human KB-3-1 cells by MTT assay; assay type: functional, cell-based
[11] = target: Cyclin-dependent kinase 2/cyclin A (Homo sapiens, UniProt P24941); assay: Inhibition of CDK2/Cyclin A (unknown origin); assay type: protein-complex assay
[12] = target: Dual specificity tyrosine-phosphorylation-regulated kinase 1A (Homo sapiens, UniProt Q13627)
Description: Inhibition of DYRK1A (unknown origin)

CDK9/Cyclin T = CDK9/Cyclin T (Homo sapiens, UniProt P50750); assay: Inhibition of CDK9/Cyclin T (unknown origin); assay type: protein-complex assay
786-0 = assay: Antitumor activity against human 786-0 cells; assay type: functional
LAPC4 = assay: Antiproliferative activity against human LAPC4 cells assessed as inhibition of proliferation measured after 96 hrs by alamerBlue assay; assay type: functional, cell-based
MOLM-13 = assay: Antiproliferative activity against human MOLM-13 cells assessed as inhibition of proliferation measured after 96 hrs by alamerBlue assay; assay type: functional, cell-based
[13] = test system: Human immunodeficiency virus 1; assay: Antiviral activity against HIV1 assessed as inhibition of LC5-RIC cells infection at 50 uM relative to control; assay type: functional

Sequence of Cyclin-dependent kinase 5/CDK5 activator 1 (Q00535 whole entry): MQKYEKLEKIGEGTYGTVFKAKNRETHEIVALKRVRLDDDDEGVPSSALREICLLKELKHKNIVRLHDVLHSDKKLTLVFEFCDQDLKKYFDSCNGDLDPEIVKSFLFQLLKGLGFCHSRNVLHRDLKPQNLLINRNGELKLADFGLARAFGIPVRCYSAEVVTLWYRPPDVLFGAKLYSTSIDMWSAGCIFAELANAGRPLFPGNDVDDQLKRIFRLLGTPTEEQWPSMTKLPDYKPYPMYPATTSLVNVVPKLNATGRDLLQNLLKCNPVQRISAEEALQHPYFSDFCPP
Sequence of Cyclin-dependent kinase 5/CDK5 activator 1 (Q15078 whole entry, further chain): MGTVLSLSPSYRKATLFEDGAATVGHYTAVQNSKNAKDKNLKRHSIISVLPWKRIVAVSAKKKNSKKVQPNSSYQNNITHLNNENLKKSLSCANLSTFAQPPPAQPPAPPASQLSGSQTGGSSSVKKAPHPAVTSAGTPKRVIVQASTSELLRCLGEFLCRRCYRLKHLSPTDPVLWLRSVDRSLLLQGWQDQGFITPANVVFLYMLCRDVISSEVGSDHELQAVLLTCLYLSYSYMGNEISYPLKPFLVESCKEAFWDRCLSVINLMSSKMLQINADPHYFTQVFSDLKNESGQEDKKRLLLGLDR
Sequence of CDK9/Cyclin T (O60563 whole entry): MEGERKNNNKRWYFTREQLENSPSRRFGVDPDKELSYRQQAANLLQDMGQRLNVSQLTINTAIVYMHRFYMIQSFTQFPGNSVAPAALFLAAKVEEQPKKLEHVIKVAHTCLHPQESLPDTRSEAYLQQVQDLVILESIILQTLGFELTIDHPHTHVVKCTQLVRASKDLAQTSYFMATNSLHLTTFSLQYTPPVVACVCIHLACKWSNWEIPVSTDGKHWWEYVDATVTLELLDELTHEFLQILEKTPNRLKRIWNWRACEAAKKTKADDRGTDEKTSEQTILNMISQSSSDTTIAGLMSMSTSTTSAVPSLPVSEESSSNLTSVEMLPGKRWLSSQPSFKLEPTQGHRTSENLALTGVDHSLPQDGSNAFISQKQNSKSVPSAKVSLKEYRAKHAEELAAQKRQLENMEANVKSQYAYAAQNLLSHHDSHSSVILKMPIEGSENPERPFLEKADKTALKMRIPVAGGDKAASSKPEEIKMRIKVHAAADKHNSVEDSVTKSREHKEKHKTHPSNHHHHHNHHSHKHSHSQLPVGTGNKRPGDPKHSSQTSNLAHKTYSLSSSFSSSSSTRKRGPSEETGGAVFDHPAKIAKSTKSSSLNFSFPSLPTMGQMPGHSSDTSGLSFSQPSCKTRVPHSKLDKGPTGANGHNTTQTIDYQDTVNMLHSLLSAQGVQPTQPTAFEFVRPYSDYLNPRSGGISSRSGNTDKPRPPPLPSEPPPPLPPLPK
Sequence of CDK9/Cyclin T (P50750 whole entry): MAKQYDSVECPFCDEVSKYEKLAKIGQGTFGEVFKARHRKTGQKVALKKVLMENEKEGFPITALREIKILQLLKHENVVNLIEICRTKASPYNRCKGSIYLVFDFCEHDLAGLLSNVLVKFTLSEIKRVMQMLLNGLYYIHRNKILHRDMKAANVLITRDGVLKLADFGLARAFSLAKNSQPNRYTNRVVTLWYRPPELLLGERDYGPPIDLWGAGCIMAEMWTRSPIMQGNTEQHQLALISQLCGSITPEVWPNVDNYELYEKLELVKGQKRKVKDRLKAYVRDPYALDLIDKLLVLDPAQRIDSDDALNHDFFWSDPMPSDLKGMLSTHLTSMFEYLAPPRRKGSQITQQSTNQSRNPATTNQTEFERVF
Sequence of CDK9/Cyclin T (O60583 whole entry, further chain): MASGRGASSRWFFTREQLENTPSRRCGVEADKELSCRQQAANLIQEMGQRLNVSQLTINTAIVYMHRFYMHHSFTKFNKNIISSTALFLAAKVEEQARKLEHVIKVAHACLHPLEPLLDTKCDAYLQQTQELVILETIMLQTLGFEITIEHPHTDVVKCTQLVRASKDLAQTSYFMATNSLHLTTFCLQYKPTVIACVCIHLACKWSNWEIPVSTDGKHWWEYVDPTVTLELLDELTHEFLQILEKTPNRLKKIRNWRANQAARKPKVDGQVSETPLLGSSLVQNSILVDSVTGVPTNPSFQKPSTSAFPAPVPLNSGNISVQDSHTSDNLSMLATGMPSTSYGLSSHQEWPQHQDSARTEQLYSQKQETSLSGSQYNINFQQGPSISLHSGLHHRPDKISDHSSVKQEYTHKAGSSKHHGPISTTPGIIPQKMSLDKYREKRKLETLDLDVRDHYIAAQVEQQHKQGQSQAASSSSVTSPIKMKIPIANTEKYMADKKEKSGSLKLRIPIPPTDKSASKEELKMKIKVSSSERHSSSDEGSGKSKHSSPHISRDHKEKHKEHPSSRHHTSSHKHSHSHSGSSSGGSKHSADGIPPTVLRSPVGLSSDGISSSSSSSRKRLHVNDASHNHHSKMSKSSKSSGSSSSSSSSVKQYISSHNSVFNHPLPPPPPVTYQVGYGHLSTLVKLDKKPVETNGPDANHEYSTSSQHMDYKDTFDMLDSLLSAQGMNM
Sequence of Mitogen-activated protein kinase kinase kinase 11 (Homo sapiens) (Q16584 whole entry, looked up): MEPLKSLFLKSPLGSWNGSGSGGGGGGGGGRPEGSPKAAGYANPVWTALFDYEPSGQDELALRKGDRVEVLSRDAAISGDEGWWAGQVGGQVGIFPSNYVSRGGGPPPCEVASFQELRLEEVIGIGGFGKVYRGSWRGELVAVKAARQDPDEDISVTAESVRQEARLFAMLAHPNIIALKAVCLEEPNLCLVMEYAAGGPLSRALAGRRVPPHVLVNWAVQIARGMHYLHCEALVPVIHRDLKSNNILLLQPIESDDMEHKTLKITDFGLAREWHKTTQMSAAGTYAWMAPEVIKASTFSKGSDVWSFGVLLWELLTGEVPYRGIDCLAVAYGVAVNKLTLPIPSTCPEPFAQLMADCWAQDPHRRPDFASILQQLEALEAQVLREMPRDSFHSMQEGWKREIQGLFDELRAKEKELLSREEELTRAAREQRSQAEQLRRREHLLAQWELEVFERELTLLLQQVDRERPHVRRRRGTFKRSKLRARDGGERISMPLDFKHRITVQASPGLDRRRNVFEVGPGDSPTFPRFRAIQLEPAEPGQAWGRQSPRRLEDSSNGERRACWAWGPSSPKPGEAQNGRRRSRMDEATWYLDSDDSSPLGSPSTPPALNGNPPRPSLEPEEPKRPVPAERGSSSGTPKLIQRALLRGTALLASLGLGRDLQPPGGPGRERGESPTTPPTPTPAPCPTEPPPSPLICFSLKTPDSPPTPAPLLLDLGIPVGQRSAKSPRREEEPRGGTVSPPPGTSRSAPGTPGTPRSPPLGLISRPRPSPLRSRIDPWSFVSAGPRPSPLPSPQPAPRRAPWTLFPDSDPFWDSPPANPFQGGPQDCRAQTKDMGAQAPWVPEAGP
Sequence of Aurora kinase B (Homo sapiens) (Q96GD4 whole entry): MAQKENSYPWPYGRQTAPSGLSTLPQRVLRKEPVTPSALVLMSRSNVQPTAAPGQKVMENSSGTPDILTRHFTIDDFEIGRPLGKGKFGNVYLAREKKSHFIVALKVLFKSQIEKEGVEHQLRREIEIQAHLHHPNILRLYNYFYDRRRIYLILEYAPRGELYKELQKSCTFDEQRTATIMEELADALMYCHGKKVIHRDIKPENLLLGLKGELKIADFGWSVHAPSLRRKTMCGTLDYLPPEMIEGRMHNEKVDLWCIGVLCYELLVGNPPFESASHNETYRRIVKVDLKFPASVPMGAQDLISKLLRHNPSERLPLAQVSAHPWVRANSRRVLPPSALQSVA
Sequence of Serine/threonine-protein kinase pim-1 (Homo sapiens) (P11309 whole entry, looked up): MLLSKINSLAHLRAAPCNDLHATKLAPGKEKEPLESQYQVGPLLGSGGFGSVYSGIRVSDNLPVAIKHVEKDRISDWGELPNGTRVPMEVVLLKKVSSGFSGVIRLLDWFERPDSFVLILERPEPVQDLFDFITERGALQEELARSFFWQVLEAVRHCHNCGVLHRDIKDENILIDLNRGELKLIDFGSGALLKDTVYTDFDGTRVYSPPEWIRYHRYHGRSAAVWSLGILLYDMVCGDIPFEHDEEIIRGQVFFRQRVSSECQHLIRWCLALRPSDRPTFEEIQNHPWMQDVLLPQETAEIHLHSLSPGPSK
Sequence of MAP/microtubule affinity-regulating kinase 3 (Homo sapiens) (P27448 whole entry, looked up): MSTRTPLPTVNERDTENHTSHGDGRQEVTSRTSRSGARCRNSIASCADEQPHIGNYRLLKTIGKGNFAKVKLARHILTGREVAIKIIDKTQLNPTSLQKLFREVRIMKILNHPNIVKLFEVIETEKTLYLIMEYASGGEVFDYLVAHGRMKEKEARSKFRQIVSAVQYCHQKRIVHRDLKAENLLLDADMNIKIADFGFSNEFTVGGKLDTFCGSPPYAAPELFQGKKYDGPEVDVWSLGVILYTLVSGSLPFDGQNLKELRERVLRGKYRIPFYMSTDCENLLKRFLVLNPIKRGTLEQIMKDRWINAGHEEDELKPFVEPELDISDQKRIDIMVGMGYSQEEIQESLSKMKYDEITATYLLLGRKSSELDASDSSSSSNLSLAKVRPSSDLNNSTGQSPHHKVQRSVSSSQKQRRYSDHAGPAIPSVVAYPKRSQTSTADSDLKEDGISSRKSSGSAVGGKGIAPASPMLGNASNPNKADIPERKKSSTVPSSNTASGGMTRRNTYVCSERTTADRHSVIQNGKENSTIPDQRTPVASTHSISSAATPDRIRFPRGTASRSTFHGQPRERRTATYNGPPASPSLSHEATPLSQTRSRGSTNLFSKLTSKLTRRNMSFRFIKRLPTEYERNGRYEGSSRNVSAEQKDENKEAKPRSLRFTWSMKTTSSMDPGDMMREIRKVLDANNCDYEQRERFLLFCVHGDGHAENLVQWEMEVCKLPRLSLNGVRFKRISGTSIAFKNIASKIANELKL

`O=C1Cc2c([nH]c3ccc(Br)cc23)-c2cccnc2N1` showed an IC50 [1] of 6 µM and a Selectivity Index [2] of 1.4.
For `O=C1NCC/C(=N\Nc2ccc(Cl)cn2)c2c1[nH]c1ccc(F)cc21`, the IC50 [1] was 0.075 µM.
For `O=C1NCC/C(=N\Nc2ccccn2)c2c1[nH]c(Br)c2Br`, the IC50 [1] was 10.4 µM.
`NC1=NC(=O)/C(=C2\CCNC(=O)c3[nH]c(Br)c(Br)c32)N1` gave an IC50 [1] of 0.056 µM and an IC50 [3] of 0.53 µM.
With `CCOC(=O)c1cc2c([nH]1)-c1[nH]c3ccccc3c1C(=O)NC2` the inhibition [4] was 50%, the inhibition [5] was 50% and the inhibition [6] was 50%. For the same compound, the inhibition (Homo sapiens [7]) was 50%, the inhibition [8] was 50% and the inhibition [9] was 50%.
For `O=C(O)CC1CCC(=O)N(CC(=O)NC[C@H]2CC[C@H](Nc3nc4ccccc4[nH]3)CC2)c2ccccc21` (some centres undefined), the IC50 (Integrin alpha-V/beta-3) was 0.04 nM.
Work on `O=C1N=C(NCc2ccccc2)N/C1=C1/CCNC(=O)c2[nH]c(-c3ccccc3)cc21` yielded a Ratio IC50 (Homo sapiens [10]) of 32.
With `O=C1Cc2c([nH]c3ccncc23)-c2ccccc2N1` the IC50 (Casein kinase I) was greater than 10 µM and the IC50 [3] was 2.1 µM.
With `O=C1NC(=O)/C(=C2\CCNC(=O)c3[nH]c(Br)cc32)N1` [SPONGIACIDIN D] the IC50 [1] was 7 µM, the IC50 (Protein kinase C (PKC)) was 9 µM and the IC50 (Casein kinase I) was 4.5 µM. It also gave an IC50 [3] of 4 µM.
`O=C1Cc2c([nH]c3ccc(Br)cc23)-c2sccc2N1` gave an IC50 [1] of 0.12 µM.
For `COc1ccc2c3c([nH]c2c1)C(=O)NCc1ccccc1-3`, the IC50 (MCF7) was 4 µM and the IC50 (MDA-MB-231) was 4 µM.
With `NC1=NC(=O)/C(=C2\CCNC(=O)c3[nH]c4ccc(Cl)cc4c32)N1` the IC50 [1] was 0.191 µM and the IC50 [3] was 2.3 µM.
Work on `Nc1ncc(C2=CCNC(=O)c3[nH]c(Br)c(Br)c32)[nH]1` [STEVENSINE] yielded an EC50 (L5178Y) of 3.5 µg/mL (≈ 9.04 µM).
`CNC1=NC(=O)/C(=C2\CCNC(=O)c3[nH]c(-c4ccccc4)cc32)N1` showed a Ratio IC50 (Homo sapiens [10]) of 38.
`O=c1[nH]c2ccccc2c2c1[nH]c1ccccc12` gave an IC50 (KB 3-1) of 6.5 µM.
`O=C1Cc2c([nH]c3cc[n+]([O-])cc23)-c2ccccc2N1` gave an IC50 [11] greater than 10 µM, an IC50 [12] greater than 10 µM and an IC50 [1] greater than 10 µM. For the same compound, the IC50 (Casein kinase I) was greater than 10 µM, the IC50 [3] was greater than 10 µM and the IC50 (CDK9/Cyclin T) was 7.4 µM.
For `O=C1NC(=O)/C(=C2\CCNC(=O)c3[nH]ccc32)N1` [SPONGIACIDIN C], the IC50 (Protein kinase C (PKC)) was 22 µM.
In the case of `O=C1Cc2c(-c3ccccc3)cc(-c3ccco3)nc2-c2ccccc2N1`, the GI50 (786-0) is reported as 6.6 µM.
Work on `Cc1nnc(C[C@H]2C=C(c3ccc(Cl)cc3)c3ccccc3-n3c(C)nnc32)o1` yielded an IC50 (LAPC4) of 0.04 µM and an IC50 (MOLM-13) of 0.12 µM.
Work on `NC1=NC(=O)/C(=C2\CCNC(=O)c3[nH]c(Cl)c(Cl)c32)N1` yielded an IC50 [1] of 0.062 µM and an IC50 [3] of 0.22 µM.
For `COc1ccc(-c2cc3c([nH]2)C(=O)NCC/C3=C2/NC(N)=NC2=O)cc1OC`, the Ratio IC50 (Homo sapiens [10]) was 111.
Work on `Nc1ncc(/C=C/CNC(=O)c2cc(Br)c(Br)[nH]2)[nH]1` [OROIDIN] yielded an inhibition at 50 µM [13] of 50%.
`O=C1Cc2c([nH]c3cc[n+](Cc4ccccc4)cc23)-c2ccccc2N1.[Br-]` showed an IC50 [11] of 6.2 µM, an IC50 [12] greater than 10 µM and an IC50 [1] of 7.3 µM. For the same compound, the IC50 (Casein kinase I) was greater than 10 µM and the IC50 (CDK9/Cyclin T) was 0.24 µM.
Compound `O=C1NCc2ccccc2-c2c1[nH]c1ccccc21` has an IC50 (MCF7) of 0.6 µM and an IC50 (MDA-MB-231) of 0.6 µM.
